The source of these data is article PMC5823406, “Vehicle development, pharmacokinetics and toxicity of the anti-invasive agent 4-fluoro-3’,4’,5’-trimethoxychalcone in rodents” (PLoS ONE, 2018).

Molecules are shown by their SMILES. Where “and” joins values, the source holds several entries; their conditions need not be identical. Identical values can stand only once. Like-named read-outs stand apart in the source and are kept apart here. Bounds are passed on as bounds.

One data set has as its system SK-OV-3. Further details: method as in PMID 26204510. Conditions: read-out: IC50 in Matrigel invasion assay (SK-OV-3); cited from earlier work.
A short description of data set [1]: LogD, partition coefficient n-octanol/PBS. In kind it is physicochemical. Conditions: pH 7.4, 100 μM. The text has this: Table 3 In vitro physicochemical, stability and metabolism data. | column: Value
A further data set concerns MCF-7/6. Further details: method as in PMID 26204510. Conditions: cited from earlier work.
Data set [2] is described as follows: High-dose PK, single PO 300 mg/kg via oral gavage. The settings on record: single 300 mg/kg oral gavage; for Individual whole blood concentration: animals 4-1 to 4-3. In kind it is in vivo. On the procedure: On the morning of day 7, the water group received a single PO administration of 300 mg/kg C16 (10 mL/kg) for high-dose PK evaluation, using a 30 mg/mL solution of C16 in 10% Solutol HS-15 / 90% PEG 600 (prepared as described above). To that extent, blood was collected via the tail vein at the 30 and 60 min time point, and via cardiac exsanguination after 180 min (protocol as for other cohorts). Samples for hematological and biochemical analysis were also prepared. Afterward, animals were sacrificed by cervical dislocation.
Blood samples (25 μL) were collected via the tail vein or cardiac puncture (last time point). Blood was pipetted into a tube with 25 μL heparinized water (1 μL of sodium heparin (1000 units/mL) + 24 μL water) within 30 seconds of collection. The sample was pipetted up and down five times, immediately frozen on dry ice, and stored at -60°C to -80°C until analysis.
E.C. Whole blood C16 levels […]
BLOQ: below the limit of quantitation (0.5 ng/mL). Samples that were below the limit of quantification were not used in the calculation of
Table BB. […]

Take `COc1cc(C(=O)/C=C/c2ccc(F)cc2)cc(OC)c1OC` [C16, 4-fluoro-3’,4’,5’-trimethoxychalcone]: the IC50 (usually the point on the concentration scale where inhibition reaches its midpoint) in the data set on SK-OV-3 was below 100 nM. The log distribution coefficient (LogD) – broadly, the decadic logarithm of the distribution of all forms, ionised or not, between an organic phase and buffer at a given pH – in data set [1] was determined as 3.85. Further, in the data set with MCF-7/6, the “Activity level in 3D confrontation culture (chick heart invasion assay, MCF-7/6)” value is given as 10 nM. For the same molecule, the concentration at 0.5 h in data set [2] (male, CD-1, mouse, whole blood, po, 0.5 h, Average±SD) was determined as 32.3 ± 24.2 ng/mL. Also, the concentration at 1 h in data set [2] (male, CD-1, mouse, whole blood, po, 1 h, Average±SD) is 28.3 ± 12.1 ng/mL. Besides, the concentration at 3 h was determined as 15.1 ± 2.9 ng/mL in data set [2] (male, CD-1, mouse, whole blood, po, 3 h, Average±SD, read-out: Whole blood concentration) and 18.4 ng/mL in data set [2] (mouse, whole blood, po, 3 h, animals 4-1 to 4-3, read-out: Individual whole blood concentration). Moreover, the “Individual whole blood concentration” value in data set [2] (mouse, 0.5 h) was 19.3 ng/mL and 60.2 ng/mL and 17.5 ng/mL; in data set [2] (mouse, 1 h), 28.5 ng/mL and 40.3 ng/mL and 16.2 ng/mL; in data set [2] (mouse, 3 h) it was 13.9 ng/mL and 13.1 ng/mL.
